Source: paper PMC12165799, “Antimicrobial peptide developed with machine learning sequence optimization targets drug resistant Staphylococcus aureus in mice” (The Journal of Clinical Investigation, 2025)

Key:
[1] = tested on: S. aureus MW2 skin infection; experiment: Skin-abraded murine infection, established infection model, bacterial load; type: in vivo, mice; set-up: Bacterial load from skin specimens, established infection model / bacterial load in skin, Sup. Fig. 12: unit not given here; settings: for Reduction of S. aureus MW2 vs vehicle, established infection model: single dose 24 hours after inoculation, n = 8; for bacterial load in skin, Sup. Fig. 12: mice
Experimental: 599 In vivo murine skin infection and treatment
600 We used a topical skin-abraded murine infection model with minor modifications to test
601 the in vivo efficacy of the CIT-8 peptide (25). We performed all mouse studies following the
602 protocol approved by the Institutional Animal Care and Use Committee. In brief, we anesthetized
603 female C57BL/6 mice (6 weeks) (Jackson Laboratory, Bar Harbor, ME, USA) with ketamine-
604 xylazine (90 mg/kg ketamine and 10 mg/kg xylazine) via intraperitoneal injection. We shaved the
605 dorsal side of the mice in the middle of the back (area=2 cm2). To disrupt skin integrity, we tape-
606 stripped with Tensoplast® seven times in succession, replacing the tape each time, resulting in
607 visibly damaged skin. We infected the damaged skin area with 1 × 10^7 CFU of S. aureus MW2
608 (exponential phase bacteria in PBS) with an inoculum of 50 µl using a pipette tip. Ten minutes
609 (prophylactic model) and 24 h (established model) after bacterial inoculation, we applied 30 mg
610 of 1 and 2% (w/w) CIT-8 ointment in a white petroleum jelly base (Cat no. 19-090-843, Fisher
611 Scientific, MA, USA) to the skin. We also included animal groups treated with only petroleum
612 jelly or with 2% commercial mupirocin ointment as negative and positive controls, respectively.
613 For pain management, we used the analgesic buprenorphine SR (0.05 mg/kg).
614 After 24 h of treatment, we euthanized the animals, separated the skin from the underlying
615 fascia and muscle tissue, and excised about 2 cm2 of skin from the infected area. We ground the
616 skin in 1ml of PBS buffer (Gibco, MD, USA). We serially diluted 100 µl of the solution in PBS
617 and plated it on Remel™ TSA plates (Fisher, MA, USA) to estimate viable colony counts after 18
618 h of incubation at 37 °C. Further, we added 10 µl of EDTA-Free, protease inhibitor cocktail Set III
619 (Millipore Sigma, MA, USA) to 500 µl of the ground skin PBS solution for cytokine estimation.
620 The Cytokine Core, LLC (Indianapolis, IN, USA) performed the cytokine concentration analysis

[2] = tested on: S. aureus MW2; experiment: Cryo-electron microscopy; type: cell-based, Staphylococcus aureus; settings: 80 μg/mL, 60 minutes
Experimental: 506 containing 50 µl BacTiter-Glo reagent (Promega, WI, USA) and measured plate luminescence as
507 previously described (18) after 5 min of incubation at room temperature.
509 Cryo-electron microscopy (cryo-EM)
510 We statically treated 10 ml of an exponential-phase S. aureus MW2 culture (OD600 = 0.4,
For imaging, we vitrified the
512 bacteria cells using Leica EM-GP2® plunger (Leica Microsystems, Wetzlar, Germany) on R2×2
513 Quantifoil® carbon holey film (Micro Tools GmbH, Jena, Germany) grids as previously described
514 (19). Briefly, we applied a 4 µl of bacterial suspensions to the grids pre-cleaned in a Gatan Solarus
515 950 plasma cleaner (Gatan, Inc, USA), blotted with filter paper, and plunged into liquid ethane.
516 We stored the frozen grids under liquid nitrogen until used for microscopy. We then transferred
517 the grids into a JEM 2200FS electron microscope (JEOL Ltd, Akishima, Japan) operating at 200
518 keV and equipped with a field emission gun, in-column electron energy filter (omega type) and a
519 DE20 direct electron detector camera (Direct Electron Inc., CA, USA). We used a 20 eV energy
520 slit width during data acquisition. Total electron dose/image was ~15 electrons/Å2. Image pixel
521 size was 3.66 Å on the specimen scale.
523 Scanning electron microscopy (SEM)
524 We followed an established protocol with minor modification to perform SEM imaging of […]

[3] = tested on: HepG2 cells; experiment: Mammalian cell cytotoxicity assay
Experimental: 410 the HepG2 cells at 37°C in 5% CO2 in Dulbecco’s Modified Eagle Medium (DMEM) (Gibco, MA,
We harvested and resuspended cells in fresh DMEM

Substance: H-GLFKVIKKLLKVI-NH2 [CIT-8]
- Bacterial load from skin specimens, established infection model ([1]; 1% ointment 24 hours after infection, animal 1): 573476702
- Bacterial load from skin specimens, established infection model ([1]; 1% ointment 24 hours after infection, animal 2): 722891566
- Bacterial load from skin specimens, established infection model ([1]; 1% ointment 24 hours after infection, animal 3): 990099010
- Bacterial load from skin specimens, established infection model ([1]; 1% ointment 24 hours after infection, animal 4): 73752712
- Bacterial load from skin specimens, established infection model ([1]; 1% ointment 24 hours after infection, animal 5): 440528634
- Bacterial load from skin specimens, established infection model ([1]; 1% ointment 24 hours after infection, animal 6): 407784986
- Bacterial load from skin specimens, established infection model ([1]; 1% ointment 24 hours after infection, animal 7): 586080586
- Bacterial load from skin specimens, established infection model ([1]; 1% ointment 24 hours after infection, animal 8): 58441558
- Reduction of S. aureus MW2 vs vehicle, established infection model ([1]; 1% w/w ointment): 0.85 log
- bacterial load in skin, Sup. Fig. 12 ([1]; 1%, animal 1): 3454231
- bacterial load in skin, Sup. Fig. 12 ([1]; 1%, animal 2): 9594096
- bacterial load in skin, Sup. Fig. 12 ([1]; 1%, animal 3): 4268293
- bacterial load in skin, Sup. Fig. 12 ([1]; 1%, animal 4): 37383178
- bacterial load in skin, Sup. Fig. 12 ([1]; 1%, animal 5): 4592423
- bacterial load in skin, Sup. Fig. 12 ([1]; 1%, animal 6): 4992200
- bacterial load in skin, Sup. Fig. 12 ([1]; 1%, animal 7): 5211726
- bacterial load in skin, Sup. Fig. 12 ([1]; 1%, animal 8): 8092486
- Bacterial load from skin specimens, established infection model ([1]; 2% ointment 24 hours after infection, animal 1): 198248802
- Bacterial load from skin specimens, established infection model ([1]; 2% ointment 24 hours after infection, animal 2): 54495913
- Bacterial load from skin specimens, established infection model ([1]; 2% ointment 24 hours after infection, animal 3): 66006601
- Bacterial load from skin specimens, established infection model ([1]; 2% ointment 24 hours after infection, animal 4): 87431694
- Bacterial load from skin specimens, established infection model ([1]; 2% ointment 24 hours after infection, animal 5): 13757524
- Bacterial load from skin specimens, established infection model ([1]; 2% ointment 24 hours after infection, animal 6): 41237113
- Bacterial load from skin specimens, established infection model ([1]; 2% ointment 24 hours after infection, animal 7): 64923354
- Bacterial load from skin specimens, established infection model ([1]; 2% ointment 24 hours after infection, animal 8): 70546737
- Reduction of S. aureus MW2 vs vehicle, established infection model ([1]; 2% w/w ointment): 1.8 log
- bacterial load in skin, Sup. Fig. 12 ([1]; 2%, animal 1): 3143418
- bacterial load in skin, Sup. Fig. 12 ([1]; 2%, animal 2): 1148325
- bacterial load in skin, Sup. Fig. 12 ([1]; 2%, animal 3): 935065
- bacterial load in skin, Sup. Fig. 12 ([1]; 2%, animal 4): 898204
- bacterial load in skin, Sup. Fig. 12 ([1]; 2%, animal 5): 917874
- bacterial load in skin, Sup. Fig. 12 ([1]; 2%, animal 6): 1020408
- bacterial load in skin, Sup. Fig. 12 ([1]; 2%, animal 7): 1787044
- bacterial load in skin, Sup. Fig. 12 ([1]; 2%, animal 8): 4694836
- Cryo-EM appearance of treated cells [2]: membrane disruption and perturbation
- HepG2 cell viability, Sup. Fig. 4B ([3]; 4 μg/ml, replicate 1): 110.665
- HepG2 cell viability, Sup. Fig. 4B ([3]; 4 μg/ml, replicate 2): 94.3717
- HepG2 cell viability, Sup. Fig. 4B ([3]; 4 μg/ml, replicate 3): 107.525
- HepG2 cell viability, Sup. Fig. 4B ([3]; 8 μg/ml, replicate 1): 104.83
- HepG2 cell viability, Sup. Fig. 4B ([3]; 8 μg/ml, replicate 2): 93.4852
- HepG2 cell viability, Sup. Fig. 4B ([3]; 8 μg/ml, replicate 3): 105.572
- HepG2 cell viability, Sup. Fig. 4B ([3]; 16 μg/ml, replicate 1): 122.471
- HepG2 cell viability, Sup. Fig. 4B ([3]; 16 μg/ml, replicate 2): 104.62
- HepG2 cell viability, Sup. Fig. 4B ([3]; 16 μg/ml, replicate 3): 109.473
- HepG2 cell viability, Sup. Fig. 4B ([3]; 32 μg/ml, replicate 1): 107.545
- HepG2 cell viability, Sup. Fig. 4B ([3]; 32 μg/ml, replicate 2): 100.768
- HepG2 cell viability, Sup. Fig. 4B ([3]; 32 μg/ml, replicate 3): 106.994
- HepG2 cell viability, Sup. Fig. 4B ([3]; 64 μg/ml, replicate 1): 70.5897
- HepG2 cell viability, Sup. Fig. 4B ([3]; 64 μg/ml, replicate 2): 64.1784
- HepG2 cell viability, Sup. Fig. 4B ([3]; 64 μg/ml, replicate 3): 64.2134
- HepG2 cell viability, Sup. Fig. 4B ([3]; 128 μg/ml, replicate 1): 32.858
- HepG2 cell viability, Sup. Fig. 4B ([3]; 128 μg/ml, replicate 2): 28.9912
- HepG2 cell viability, Sup. Fig. 4B ([3]; 128 μg/ml, replicate 3): 25.6954
- LD50 (concentration needed to kill 50% of HEPG2 cells) ([3]; human liver-derived HEPG2 cells): 96 µg/mL
